Results reported in patent publication US5763635A, “Tetrahydronaphthalene derivatives substituted in the 8 position with alkyhidene groups having retinoid and/or retinoid antagonist-like biological activity” (ALLERGAN, priority 1996, dated 1998).

Tested on: ornithine decarboxylase (ODC)
Assay: Inhibition of TPA induction of ornithine decarboxylase (ODC assay)
Format: biochemical
Text: A classic measure of retinoic acid activity involves measuring the effects of retinoic acid on ornithine decarboxylase. The original work on the correlation between retinoic acid and decrease in cell proliferation was done by Verma & Boutwell, Cancer Research, 1977, 37,2196-2201. That reference discloses that ornithine decarboxylase (ODC) activity increased precedent to polyamine biosynthesis. It has been established elsewhere that increases in polyamine synthesis can be correlated or associated with cellular proliferation. Thus, if ODC activity could be inhibited, cell hyperproliferation could be modulated. Although all cases for ODC activity increases are unknown, it is known that 12-O-tetradecanoylphorbol-13-acetate (TPA) induces ODC activity. Retinoic acid inhibits this induction of ODC activity by TPA. […] Activity of exemplary compounds of the present invention in the above-described ODC assay is disclosed in Table 1 which provides the IC60 concentration for the respective exemplary compound. ("IC60 " is that concentration of the test compound which causes 60% inhibition in the ODC assay. By analogy, "IC80, for example, is that concentration of the test compound which causes 80% inhibition in the ODC assay.)

IC60 (concentration causing 60% inhibition in the ODC assay (TPA-induced))	IC80 (concentration causing 80% inhibition in the ODC assay (TPA-induced), marked (IC80) in the IC60 column)	Structure (SMILES)
8.4 nmols		CCOC(=O)c1ccc(N=Nc2ccc3c(c2)/C(=N/OC)CCC3(C)C)cc1 [Compound D3, Ethyl 4-[(8(7H)-anti-(O-methyl oxime)-5,5-dimethyl-5,6-dihydronaphthalen-2-yl)azo]benzoate]
	4.3 nmols	CC1(C)CC=C(c2cccs2)c2ccc(C(=O)C=Cc3ccc(C(=O)O)cc3)cc21 [Compound D34, 4-[3-oxo-3-(7,8-dihydro-5-(2-thienyl)-8,8-dimethyl-2-naphthalenyl)-1-propenyl]-benzoic acid]
